Literature values, collected in paper PMC3689924 (Pharmacology, 2012).

Conditions: cited from earlier work

COC(=O)c1cnc2n1CCc1ccccc1C2=C1CCN(CCc2ccc(OCc3ccc4ccccc4n3)cc2)CC1 [laniquidar]
increase in AUC with increasing dose: greater than proportional increases in AUC

O[C@@H](COc1cccc2ncccc12)CN1CCN([C@@H]2c3ccccc3[C@@H]3[C@H](c4ccccc42)C3(F)F)CC1 [zosuquidar]
increase in AUC with increasing dose: greater than proportional increases in AUC
